Experimental data reported in patent publication US12702644B2, “Pharmaceutical composition comprising ibuprofen and arginine” (priority 2021, dated 2026).

Legend:
[1] = test system: RAW 264.7 (murine macrophages); experiment: Superoxide anion generation (DHE fluorescence) in murine macrophages stimulated with LPS; format: cell-based; settings: FIG. 3; LPS 25 μM/mL, 60 min; Ibu 10, 50, 100 μM alone; Arg 50 μM alone; PBS
Description: The selected method measures the fluorescence of DHE generated from its interaction with superoxide anion (O2^−) to determine the inhibitory effect of the different formulations on the generation of O2^− in murine macrophages that have been stimulated with LPS. This method has been selected because, as Chen et al. [Chen, J., et al. (2013). Analysis of kinetics of dihydroethidium fluorescence with superoxide using xanthine oxidase and hypoxanthine assay. […]
After this incubation, basal fluorescence was measured on a Fluoroskan Ascent plate reader, Labsystems using λex=485 nm and λem=538 nm. […] The fluorescence of the plate was then re-recorded using the same filter as in the basal condition.
For the analysis of the results, the value corresponding to the basal fluorescence for each well was subtracted from each final time value. […]
Murine macrophages were stimulated with LPS (25 μM/mL) and treated with arginine 50 μM alone or with different concentrations of alkaline hypertonic ibuprofen (10, 50, and 100 μM) in PBS saline solution. The cells were loaded with dihydroethidium (DHE) for 30 min at 37° C. and after 60 min of stimulation, normalized fluorescence was determined with the basal reading. […]

[2] = test system: patients with cystic fibrosis; settings: CF patients, cited from earlier work

Row | SMILES | inhibition of LPS-stimulated generation of superoxide anion [1] | FEV1 increase (average) ([2]; inhalation of 5 mL of 100 mg/mL twice daily, −8 ml after saline, difference not statistically significant) [mL] | exhaled NO ([2]; inhalation)
1 | N=C(N)NCCC[C@H](N)C(=O)O [Arginine] | not inhibited | – | –
2 | CC(C)Cc1ccc(C(C)C(=O)O)cc1 (stereo not shown) [Ibuprofen] | not inhibited | – | –
3 | N=C(N)NCCC[C@H](N)C(=O)O [L-arginine] | – | 56 | significant increase
